Patent publication US20190187129A1, “CANCER MODELING PLATFORMS AND METHODS OF USING THE SAME” (Wake Forest University Health Sciences, priority 2016, published 2019)
Entries after “also recorded” stand apart in the source; their conditions may differ.

What was measured:
[1] = system: HCT116 cells; assay: cells; format: cell-based; conditions: Homo sapiens, HCT-116, read-out: relative cellular viability (MTS, relative to control)
Method: (§1) Cancer cells seeded directly into wells were given 4-5 hours to reattach to the bottom of the wells. After that time, the anticancer drug solutions were administered in place of the media (FIG. 6, panel A) and an MTS assay was carried out 2 days later to determine cell viability. […] At 100 μM concentrations of Regorafenib and Sorafenib, and 100 mM concentrations of 5-FU, cellular viability remained below 20% that of the control for all four of the colorectal cancer cell lines utilized. However, screening with Dabrafenib and Trametinib produced diverging results from the other three anticancer drugs at higher concentrations. […] When treated with 1 mM concentrations of 5-FU, relative cellular viability was approximately 39% for SW480 cells and remained between 10%-22% for the HCT116, HT29, and CACO2 cells. These values were considerably lower than the relative cellular viability values for the lowest concentrations of the other anticancer drugs.
(§2) Cell Seeding: The original 15 mL centrifuge tubes containing the 10 mL of DMEM-10, cells, and trypsin were placed into a centrifuge. The centrifugation setting was 1500 RPM and at maximal acceleration for 5 minutes. After that time, the media and trypsin mixture was aspirated from the tubes, leaving the cell pellets still intact. 5 mL of DMEM-10 was then pipetted into each of the tubes, resuspending the cells in the process. Calculated volumes of the 5 mL cell-media solution were determined to ensure that 25,000 cells of each of the four colorectal cancer cell lines were seeded directly into each of the wells of a polystyrene clear-bottom 96-well plate. 100 μL of DMEM-10 media was then pipetted directly into the wells. The 96-well plates were incubated at 37° C. and 5% CO2 for 5 hours to allow the cells to reattach themselves to the bottom of the wells until media was aspirated and anticancer drug solutions were added.
(§3) Addition of Anticancer Drugs for Screening: The anticolorectal cancer drugs used in this screening included 5-FU, Regorafenib, Sorafenib, Trametinib, and Dabrafenib (Sigma-Aldrich, Missouri, USA)). High concentration drug stock solutions were created with DMSO. Lower concentration drug solutions were created by mixing the anticancer drug stocks with DMEM-10 media. […] drug solutions were generated for 5-FU; 1 μM, 10 μM, and 100 μM drug solutions were generated for Regorafenib, Sorafenib, and Dabrafenib; and 1 nM, 10 nM, and 100 nM drug solutions were generated for Trametinib. Media was carefully aspirated from the wells and 200 μL of the various drug-media solutions were placed into the wells containing cells. Three duplicates were generated for each anticancer drug concentration with each of the different cell types to calculate averages and run statistics on the data generated. Well plates were then incubated at 37° C. and 5% CO2 for […].
(§4) Cell viability assay: Cell viability was determined 48 hours after exposure to the anticancer drug solutions. The viability of the cells was examined by the CellTiter 96® AQueous One Solution Cell Proliferation (MTS) assay (Promega, Wisconsin, USA). The anticancer drug-media solutions were aspirated from the wells and 200 μL of the MTS reagent was carefully pipetted into the wells. The incubation time for the cells with the MTS reagent was approximately 45 minutes. The cell viability assay was performed on another 96-well plate and the absorbance was quantified by the EnVision Multilabel Plate Reader (PerkinElmer, California, USA).

[2] = system: SW480 cells; assay: 2D drug screen, MTS assay; format: cell-based; conditions: Homo sapiens, read-out: relative cellular viability (MTS, relative to control)
Method: as §1, §2, §3, §4

[3] = system: HCT116 cells; assay: 3D hyaluronan-based hydrogel construct drug screen, MTS assay; conditions: Homo sapiens, HCT-116, 3D, 100 μM, HCT116, drug day 5, assay day 7; read-out: percent relative cell viability (MTS, relative to control)
Method: Polydimethylsiloxane, or PDMS, was used to coat the bottom of the wells. Cells were embedded within the hyaluronan-based hydrogel and were given 5 days to acclimate to their three-dimensional environment and on day 5 were administered different anticancer drug solutions (FIG. 7, panel A). […], Dabrafenib had greater efficacy in targeting the HCT116 and SW480 cell lines, which had relative cellular viability values of 38% and 43%, as opposed to the HT29 and CACO2 cell lines, which had higher cell viability values of 93% and 75%. […]
(§5) Well Coating with PDMS and Cell Isolation: Polydimethylsiloxane, or PDMS, (DOW Corning, North Carolina, USA) was used at a 1:10 curing agent ratio to coat the bottom of the 96-well plates and the plates were then placed in a 80° C. oven for at least one hour. Cells were passaged in the same methods previously mentioned (A) with the desire to place 10 μL 3D hyaluronan-based hydrogel constructs containing 100,000 cells each ([…]) into the wells of a 96-wells plate for all four colorectal cancer cell types. Depending on the cell count, a desired number of cells were isolated in new 15 mL centrifuge tubes as cell-media solution and underwent centrifugation.
(§6) Hydrogel Components of the Single-Cell Type Constructs: The hyaluronic acid-based hydrogel (ESI BIO, California, USA) was produced using a mixture of three components: Heprasil, Gelin-S, and Extralink PEGDA 2-ARM Acrylate crosslinker. These components were mixed in a 2:2:1 ratio by volume. 0.1% Irgacure photoinitiator (Sigma-Aldrich, Missouri, USA) was added to each of the three components prior to their mixture and the three components were placed in a 37° C. incubator for a ˜30 minutes to solubilize.
(§7) Forming Organoid Constructs: Once solubilized, the media was aspirated from the 15 mL centrifuge tube (post-centrifugation) and the cells were isolated as a pellet. The hydrogel components were added directly into the centrifuge tube containing the cells and the cells were carefully resuspended in the mixture. 10 μL of the gel-cell solution was placed in the center of the wells on the PDMS coating. This was continued for all wells containing cells and was repeated for each cell type. After this point, the gel can be exposed to UV light from a BlueWave 200 spot light (Dymax, Connecticut, USA) to solidify the hydrogel, or one can wait ˜30 minutes for the gel to form on its own. DMEM-10 media was then placed in the wells and the constructs were incubated for 5 days.
(§8) Anticancer Drug Screening and Cell Viability: The same five anticancer drugs were added on Day 5 and the cell viability assay occurred on Day 7.

[4] = system: HT29 cells; assay: as above; format: cell-based; conditions: for viability at 100 µM: Homo sapiens, HT-29, 100 μM, HT29, drug day 5, assay day 7, read-out: percent relative cell viability (MTS, relative to control)
Method: (§9) Polydimethylsiloxane, or PDMS, was used to coat the bottom of the wells. Cells were embedded within the hyaluronan-based hydrogel and were given 5 days to acclimate to their three-dimensional environment and on day 5 were administered different anticancer drug solutions (FIG. 7, panel A). […] At 100 μM concentrations of Regorafenib and Sorafenib, cellular viability remained below 25% that of the control for all four of the colorectal cancer cell lines utilized. The only exception to this was when 100 μM Regorafenib was administered to CACO2 cells and the percent relative cell viability rose to approximately 48%. […] At a 100 μM concentration, Dabrafenib had greater efficacy in targeting the HCT116 and SW480 cell lines, which had relative cellular viability values of 38% and 43%, as opposed to the HT29 and CACO2 cell lines, which had higher cell viability values of 93% and 75%. 100 μM concentrations of Trametinib produced relative cellular viability results that fell within a narrow range for the four colorectal cell lines with values of 54% for SW480 cells and 74% for HT29 cells.
as §5, §6, §7, §8

[5] = system: SW480 cells; assay: as above; format: cell-based; conditions: for viability at 100 µM: Homo sapiens, SW480, drug day 5, assay day 7, read-out: percent relative cell viability (MTS, relative to control)
Method: as §9, §5, §6, §7, §8

[6] = system: CACO2 cells; assay: as above; conditions: Homo sapiens, Caco-2, 3D, 100 μM, CACO2, drug day 5, assay day 7; read-out: percent relative cell viability (MTS, relative to control)
Method: as §9, §5, §6
Forming Organoid Constructs: Once solubilized, the media was aspirated from the 15 mL centrifuge tube (post-centrifugation) and the cells were isolated as a pellet. The hydrogel components were added directly into the centrifuge tube containing the cells and the cells were carefully resuspended in the mixture. 10 μL of the gel-cell solution was placed in the center of the wells on the PDMS coating. This was continued for all wells containing cells and was repeated for each cell type. […]

[7] = system: CACO2 cells; assay: cells; format: cell-based; conditions: Homo sapiens, Caco-2, read-out: relative cellular viability (MTS, relative to control)
Method: as §1, §2, §3, §4

[8] = system: HT29 cells; assay: cells; format: cell-based; conditions: Homo sapiens, HT-29, read-out: relative cellular viability (MTS, relative to control)
Method: as §1, §2, §3, §4

[9] = system: mesothelioma organoids; assay: Biomarker-driven drug study on patient organoids (MTS, Annexin V/Ki67 IHC, H&E); format: cell-based, human; conditions: 0.1 μM, 1 μM, 10 μM; 96 hours
Method: (§10) 5 μm thick organoid sections were created from paraffin-embedded constructs, and then deparaffinized for staining. IHC was used to visualize biomarkers cytokeratin 5/6 (CK5/6), calretinin, and thrombomodulin. Blocking was performed by incubation under Dako Protein Block for 15 minutes. Primary antibodies CK5/6 (Abcam, ab17133, raised in mouse) and calretinin (Abcam, ab702, raised in rabbit) or CK5/6 and thrombomodulin (Abcam, ab109189, raised in rabbit) were applied to the sections on the slides at a 1:200 dilution in Dako Antibody Diluent and incubated at room temperature for 1 hour. Next, secondary Alexa Fluor 488 or Alexa Fluor 594 antibodies with appropriate species reactivity were applied to all samples at 1:200 in Dako Antibody Diluent and left at room temperature for 1 hour (anti-mouse Alexa Fluor 488 and anti-rabbit Alexa Fluor 594, Life Technologies, Carlsbad, Calif., A-11070). Sections were then incubated with Dapi for 5 minutes prior to coverslipping. […] Fluorescence images were taken using a Leica DM400B Compound Microscope and overlaid for analysis.
(§11) Tumor constructs were biofabricated once more, after which they were maintained for 3 days prior to drug screening. […] Drug effects were quantified by MTS assays and immunohistochemistry. MTS assays (CellTiter 96 One Solution Reagent Promega, Madison, Wis.) determined relative cell number by quantifying mitochondrial metabolism. Absorbance values were determined on a Molecular Devices SpectrumMax M5 (Molecular Devices) tunable plate reader system at a wavelength of 490 nm.
(§12) Immunohistochemisty staining was performed using biomarkers Annexin V and Ki67 on 5 μm thick organoid sections. […] Fluorescence images were taken using a Leica DM400B Compound Microscope, images were taken of sections next to each other in GFP for Annexin V and Ki67 and overlaid for analysis; Annexin V images were colored red (medium grey in black and white images) and Ki67 images were colored green (light grey in black and white images).

[10] = system: HCT116 organoids; assay: Biomarker-driven drug study on control organoids (MTS, Annexin V/Ki67 IHC, H&E); format: cell-based; conditions: 0.1 μM, 1 μM, 10 μM; 96 hours
Method: as §10, §11, §12

[11] = system: HCT116 cells; conditions: literature reference 31; cited from earlier work

In the case of CC(C)(C)c1nc(-c2cccc(NS(=O)(=O)c3c(F)cccc3F)c2F)c(-c2ccnc(N)n2)s1 [Dabrafenib], the viability at 100 µM [1] is reported as ~36%, the viability at 100 µM [2] is reported as ~93% and the viability at 100 µM [3] is reported as 38%. For the same compound, the viability at 100 µM [4] was 93%, the viability at 100 µM [5] was 43% and the viability at 100 µM [6] was 75%.

For CC(=O)Nc1cccc(-n2c(=O)n(C3CC3)c(=O)c3c(Nc4ccc(I)cc4F)n(C)c(=O)c(C)c32)c1 [Trametinib], the viability at 0.1 µM [7] was ~39%, the viability at 0.1 µM ([2]; 100 nM) was ~58% and the “percent relative cell viability (MTS, relative to control)” value ([4]; 100 μM concentrations of Trametinib, HT29) was 74%. For the same compound, the “percent relative cell viability (MTS, relative to control)” value ([5]; 100 μM concentrations of Trametinib, SW480) was 54%.

With CNC(=O)c1cc(Oc2ccc(NC(=O)Nc3ccc(Cl)c(C(F)(F)F)c3)cc2)ccn1 [Sorafenib] the viability at 100 µM [7] was < 20%, the viability at 100 µM [1] was < 20% and the viability at 100 µM [8] was < 20%. For the same compound, the viability at 100 µM [2] was < 20%, the viability at 100 µM [3] was < 25% and the viability at 100 µM [4] was < 25%. The viability at 100 µM [5] was < 25% and the viability at 100 µM [6] was < 25%.

In the case of Nc1nccc2c1ncn2[C@@H]1C=C(CO)[C@@H](O)[C@H]1O [DZNep, 3-deazaneplanocin A], the “Annexin V and Ki67 immunohistochemistry” value [9] is reported as “Annexin V appears to increase in mesothelioma with increase in DZNep concentration; also recorded: increasing trend in annexin V expression; also recorded: higher ratios of Annexin V to Ki67”, the “Hematoxylin and eosin staining, cell morphology” value [9] is reported as “ghost cells and those without nuclei; also recorded: loss of normal morphology and appearance of ghost cells with no nuclei” and the “proliferation / mitochondrial metabolism (MTS assay)” value [9] is reported as “significant decrease in mesothelioma proliferation; also recorded: decrease in mitochondrial metabolism; also recorded: decreased mitochondrial metabolism”. For the same compound, the “Annexin V and Ki67 immunohistochemistry” value [10] was “minimal change in proliferation”, the “Hematoxylin and eosin staining, cell morphology” value [10] was “not present in any HCT116 treatments; also recorded: do not show this dose dependent change” and the “proliferation / mitochondrial metabolism (MTS assay)” value [10] was “no significant decrease in HCT116 proliferation; also recorded: little effect; also recorded: do not appear to respond negatively”. The “effect on HCT116 cells upon treatment” value [11] was “cell cycle arrest, but not necessarily significant levels of cell death”.
